Experiments:
Assay type in all cases: biochemical
[1] = molecular target: T1, LATS1 (Homo sapiens, UniProt O95835); test: RBC HotSpot kinase assay (33P-ATP, P81 filter-binding), LATS1; conditions: Table 28, biochemical kinase assay; read-out: LATS1 IC50
T1 sequence (O95835 1-1130): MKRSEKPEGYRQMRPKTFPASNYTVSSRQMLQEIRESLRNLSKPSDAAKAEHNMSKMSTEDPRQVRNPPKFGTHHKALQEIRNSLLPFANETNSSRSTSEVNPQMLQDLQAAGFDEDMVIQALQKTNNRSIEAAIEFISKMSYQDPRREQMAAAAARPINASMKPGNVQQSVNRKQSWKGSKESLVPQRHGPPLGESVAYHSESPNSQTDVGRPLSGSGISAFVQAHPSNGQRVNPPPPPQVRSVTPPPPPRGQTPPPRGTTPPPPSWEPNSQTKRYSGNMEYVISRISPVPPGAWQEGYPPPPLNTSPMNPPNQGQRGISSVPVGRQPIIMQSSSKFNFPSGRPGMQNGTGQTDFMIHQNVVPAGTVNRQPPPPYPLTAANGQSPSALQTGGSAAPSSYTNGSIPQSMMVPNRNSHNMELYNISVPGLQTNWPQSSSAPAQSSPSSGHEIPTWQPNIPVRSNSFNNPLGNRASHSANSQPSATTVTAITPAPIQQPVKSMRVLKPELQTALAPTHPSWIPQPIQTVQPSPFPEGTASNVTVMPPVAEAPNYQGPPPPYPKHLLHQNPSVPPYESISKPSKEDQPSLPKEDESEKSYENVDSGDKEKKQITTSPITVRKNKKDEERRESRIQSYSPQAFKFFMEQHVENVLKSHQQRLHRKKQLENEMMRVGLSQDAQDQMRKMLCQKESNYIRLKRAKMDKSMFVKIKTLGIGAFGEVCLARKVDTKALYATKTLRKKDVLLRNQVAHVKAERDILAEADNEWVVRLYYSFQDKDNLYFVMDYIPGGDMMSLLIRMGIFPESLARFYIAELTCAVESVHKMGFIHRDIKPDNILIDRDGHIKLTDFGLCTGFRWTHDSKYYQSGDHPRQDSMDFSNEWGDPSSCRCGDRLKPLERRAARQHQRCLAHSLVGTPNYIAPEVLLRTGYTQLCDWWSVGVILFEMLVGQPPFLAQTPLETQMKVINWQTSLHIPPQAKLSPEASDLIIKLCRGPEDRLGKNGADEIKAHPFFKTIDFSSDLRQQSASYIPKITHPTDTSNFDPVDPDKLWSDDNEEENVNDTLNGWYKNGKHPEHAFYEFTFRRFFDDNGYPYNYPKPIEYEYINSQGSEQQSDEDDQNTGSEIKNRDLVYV
Method in brief: (§1)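 Compounds were run as single 10-point titrations to give IC50 values in nM. Each kinase was mixed with substrate and cofactors in 20 mM Hepes pH 7.5 reaction buffer with 1% DMSO, then exposed to compound for 20 min. 33P-ATP was added for a 2 h room-temperature reaction, with activity measured by P81 filter binding.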

[2] = molecular target: T2, LATS2 (Homo sapiens, UniProt Q9NRM7); test: RBC HotSpot kinase assay (33P-ATP, P81 filter-binding), LATS2; conditions: Table 28, biochemical kinase assay; read-out: LATS2 IC50
T2 sequence (Q9NRM7 1-1088): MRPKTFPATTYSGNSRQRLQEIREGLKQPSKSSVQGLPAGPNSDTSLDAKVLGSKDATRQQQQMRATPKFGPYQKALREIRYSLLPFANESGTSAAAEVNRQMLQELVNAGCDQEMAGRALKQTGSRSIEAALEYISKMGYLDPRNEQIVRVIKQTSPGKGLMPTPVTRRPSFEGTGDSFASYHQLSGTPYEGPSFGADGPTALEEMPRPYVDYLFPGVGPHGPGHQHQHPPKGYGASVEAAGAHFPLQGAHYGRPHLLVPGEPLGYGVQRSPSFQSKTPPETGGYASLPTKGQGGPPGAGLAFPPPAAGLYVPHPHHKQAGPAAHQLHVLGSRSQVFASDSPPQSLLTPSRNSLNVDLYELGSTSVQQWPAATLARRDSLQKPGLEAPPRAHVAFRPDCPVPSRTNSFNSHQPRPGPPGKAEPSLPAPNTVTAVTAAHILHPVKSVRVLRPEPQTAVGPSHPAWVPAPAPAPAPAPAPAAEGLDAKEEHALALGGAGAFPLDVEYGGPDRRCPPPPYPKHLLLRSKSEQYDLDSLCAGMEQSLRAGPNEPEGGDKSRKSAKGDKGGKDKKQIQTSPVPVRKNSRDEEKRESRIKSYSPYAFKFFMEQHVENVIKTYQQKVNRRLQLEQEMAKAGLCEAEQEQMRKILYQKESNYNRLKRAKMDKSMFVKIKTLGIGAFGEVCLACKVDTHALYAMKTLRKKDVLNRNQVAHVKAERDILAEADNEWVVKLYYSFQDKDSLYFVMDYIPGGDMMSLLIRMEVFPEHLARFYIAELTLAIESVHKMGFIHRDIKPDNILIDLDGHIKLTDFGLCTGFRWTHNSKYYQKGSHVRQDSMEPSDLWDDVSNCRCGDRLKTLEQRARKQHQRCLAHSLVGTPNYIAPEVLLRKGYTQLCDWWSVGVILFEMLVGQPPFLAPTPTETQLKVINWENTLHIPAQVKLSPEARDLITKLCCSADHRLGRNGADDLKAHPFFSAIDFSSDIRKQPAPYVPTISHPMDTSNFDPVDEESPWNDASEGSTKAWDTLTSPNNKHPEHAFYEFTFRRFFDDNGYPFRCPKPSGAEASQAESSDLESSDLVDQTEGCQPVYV
Method in brief: as §1

[3] = molecular target: AKT (Homo sapiens, UniProt P31749); test: RBC HotSpot kinase assay (33P-ATP, P81 filter-binding), AKT; conditions: Table 28, biochemical kinase assay; read-out: AKT IC50
AKT, sequence (P31749 whole entry): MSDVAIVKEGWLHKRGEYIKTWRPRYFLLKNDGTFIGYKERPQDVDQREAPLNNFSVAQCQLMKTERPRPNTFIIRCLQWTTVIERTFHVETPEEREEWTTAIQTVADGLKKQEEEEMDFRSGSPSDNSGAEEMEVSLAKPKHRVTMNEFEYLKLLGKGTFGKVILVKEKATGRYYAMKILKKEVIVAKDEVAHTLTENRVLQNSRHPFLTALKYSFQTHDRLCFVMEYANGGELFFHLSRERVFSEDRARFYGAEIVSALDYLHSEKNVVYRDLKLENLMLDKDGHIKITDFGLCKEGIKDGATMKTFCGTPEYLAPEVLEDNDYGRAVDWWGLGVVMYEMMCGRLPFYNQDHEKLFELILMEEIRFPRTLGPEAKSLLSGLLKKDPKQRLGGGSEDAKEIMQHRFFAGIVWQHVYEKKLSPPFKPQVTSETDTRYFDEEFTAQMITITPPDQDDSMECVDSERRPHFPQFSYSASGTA
Method in brief: as §1

| SMILES | IC50 [1] [nM] | IC50 [2] [nM] | IC50 [3] [nM] |
| --- | --- | --- | --- |
| O=S(=O)(CCC1CC1)N1CCC(c2ccc(-c3ccnc4[nH]cc(F)c34)cc2Cl)CC1 [Compound 163, 4-(3-chloro-4-(1-((2-cyclopropylethyl)sulfonyl)piperidin-4-yl)phenyl)-3-fluoro-1H-pyrrolo[2,3-b]pyridine] | > 10000 | > 10000 | > 10000 |
| CCOCCS(=O)(=O)N1CCC(c2ccc(-c3ccnc4[nH]cc(F)c34)cc2Cl)CC1 [Compound 164, 4-(3-chloro-4-(1-((2-ethoxyethyl)sulfonyl)piperidin-4-yl)phenyl)-3-fluoro-1H-pyrrolo[2,3-b]pyridine] | > 10000 | > 10000 | > 10000 |
| O=C([C@@H]1CCCN1)N1CCC(c2ccc(-c3ccnc4[nH]cc(F)c34)cc2Cl)CC1 [Compound 166, (S)-4-(3-chloro-4-(1-prolylpiperidin-4-yl)phenyl)-3-fluoro-1H-pyrrolo[2,3-b]pyridine] | 10.7 | 15.5 | 1300 |
| CC(=O)N1CCC(c2ccc(-c3ccnc4[nH]cc(F)c34)cc2Cl)CC1 [Compound 171, 1-(4-(2-chloro-4-(3-fluoro-1H-pyrrolo[2,3-b]pyridin-4-yl)phenyl)piperidin-1-yl)ethan-1-one] | 69 | 100 | 5400 |
| Cc1cc(C2CCNCC2)ccc1-c1ccnc2[nH]ccc12 [Compound 176, 4-(2-methyl-4-(piperidin-4-yl)phenyl)-1H-pyrrolo[2,3-b]pyridine] | 1100 | 2140 | > 10000 |
| c1cc(-c2ccc(C3CCNCC3)nc2)c2cc[nH]c2n1 [Compound 178, 4-(6-(piperidin-4-yl)pyridin-3-yl)-1H-pyrrolo[2,3-b]pyridine] | 63 | 71 | 640 |
| Fc1cnc2[nH]ccc2c1-c1ccc(C2CCNCC2)cc1 [Compound 186, 5-fluoro-4-(4-(piperidin-4-yl)phenyl)-1H-pyrrolo[2,3-b]pyridine] | 36 | 68 | 2050 |
| c1cc(-c2ccc(C3CCNCC3)cc2)c2cc[nH]c2n1 [Compound 188, 4-(4-(piperidin-4-yl)phenyl)-1H-pyrrolo[2,3-b]pyridine] | 70 | 75 | 2200 |
| Fc1c[nH]c2nccc(-c3ccc(C4(C(F)(F)F)CCNCC4)cc3)c12 [Compound 189, 3-fluoro-4-(4-(4-(trifluoromethyl)piperidin-4-yl)phenyl)-1H-pyrrolo[2,3-b]pyridine] | 11 | 14 | 18 |
| Cc1nnc(C2(c3ccc(-c4ccnc5[nH]cc(F)c45)cc3)CCNCC2)o1 [Compound 190, 2-(4-(4-(3-fluoro-1H-pyrrolo[2,3-b]pyridin-4-yl)phenyl)piperidin-4-yl)-5-methyl-1,3,4-oxadiazole] | 20 | 17 | 18 |

Second part, the compound after the results:

| IC50 [1] [nM] | IC50 [2] [nM] | IC50 [3] [nM] | SMILES |
| --- | --- | --- | --- |
| 8.9 | 21 | 753 | Clc1cc(-c2ccnc3[nH]ccc23)ccc1C1CCNCC1 [Compound 161, 4-(3-chloro-4-(piperidin-4-yl)phenyl)-1H-pyrrolo[2,3-b]pyridine] |
| > 10000 | > 10000 | > 10000 | C[Si](C)(C)CCS(=O)(=O)N1CCC(c2ccc(-c3ccnc4[nH]cc(F)c34)cc2Cl)CC1 [Compound 162, 4-(3-chloro-4-(1-((2-(trimethylsilyl)ethyl)sulfonyl)piperidin-4-yl)phenyl)-3-fluoro-1H-pyrrolo[2,3-b]pyridine] |
| 32.1 | 36.9 | 1510 | O=C([C@H]1CCCN1)N1CCC(c2ccc(-c3ccnc4[nH]cc(F)c34)cc2Cl)CC1 [Compound 165, (R)-4-(3-chloro-4-(1-prolylpiperidin-4-yl)phenyl)-3-fluoro-1H-pyrrolo[2,3-b]pyridine] |
| 18 | 31 | 1520 | CN1CCC(c2ccc(-c3ccnc4[nH]cc(F)c34)cc2Cl)CC1 [Compound 167, 4-(3-chloro-4-(1-methylpiperidin-4-yl)phenyl)-3-fluoro-1H-pyrrolo[2,3-b]pyridine] |
| > 10000 | > 10000 | > 10000 | CC(C)(C)OC(=O)N1CCC(c2ccc(-c3ccnc4[nH]cc(F)c34)cc2Cl)CC1 [Compound 170, tert-butyl 4-(2-chloro-4-(3-fluoro-1H-pyrrolo[2,3-b]pyridin-4-yl)phenyl)piperidine-1-carboxylate] |
| 4930 | 2410 | 9000 | N#Cc1cc(C2CCNCC2)ccc1-c1ccnc2[nH]ccc12 [Compound 174, 5-(piperidin-4-yl)-2-(1H-pyrrolo[2,3-b]pyridin-4-yl)benzonitrile] |
| 56 | 142 | 7000 | c1cc(-c2ccc(C3CCNCC3)cn2)c2cc[nH]c2n1 [Compound 175, 4-(5-(piperidin-4-yl)pyridin-2-yl)-1H-pyrrolo[2,3-b]pyridine] |
| 1080 | 1290 | 5660 | COc1cc(C2CCNCC2)ccc1-c1ccnc2[nH]ccc12 [Compound 179, 4-(2-methoxy-4-(piperidin-4-yl)phenyl)-1H-pyrrolo[2,3-b]pyridine] |
| 69 | 84 | 2570 | COc1cc(-c2ccnc3[nH]ccc23)ccc1C1CCNCC1 [Compound 180, 4-(3-methoxy-4-(piperidin-4-yl)phenyl)-1H-pyrrolo[2,3-b]pyridine] |
| 68 | 87 | 3360 | Fc1cc(C2CCNCC2)ccc1-c1ccnc2[nH]ccc12 [Compound 181, 4-(2-fluoro-4-(piperidin-4-yl)phenyl)-1H-pyrrolo[2,3-b]pyridine] |
| 1570 | 1770 | > 10000 | FC(F)(F)c1cc(C2CCNCC2)ccc1-c1ccnc2[nH]ccc12 [Compound 182, 4-(4-(piperidin-4-yl)-2-(trifluoromethyl)phenyl)-1H-pyrrolo[2,3-b]pyridine] |
| 70 | 57 | 2110 | CC1CNCCC1c1ccc(-c2ccnc3[nH]ccc23)cc1 (stereo not drawn) [Compound 185, 4-(4-(3-methylpiperidin-4-yl)phenyl)-1H-pyrrolo[2,3-b]pyridine] |
